Drawing on PubChem BioAssay (NCI), this text covers TGI for twelve molecules.

Among the test systems are TK-10 renal; UACC-62 melanoma; U251 CNS; NCI-H23 lung; SF-539 CNS; HT29 colon; COLO 205 colon; LOX IMVI melanoma; BT-549 breast; PC-3 prostate.
Assay in all cases: NCI-60 cell line screen, 48 h

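Interpolation was linear, between the two tested concentrations surrounding the appropriate level; five concentrations were tested over 48 hours in 96-well plates. TGI: total growth inhibition.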

Turning to `CC1(C)CCc2c(c(N=Nc3ccc(F)cc3)c3ccccc3c2O)O1`, the TGI is greater than 100 µM with TK-10 renal; 31.3 µM in the test on UACC-62 melanoma; greater than 100 µM in the test with U251 CNS; greater than 100 µM in the test on NCI-H23 lung; greater than 100 µM with SF-539 CNS; 44.1 µM in the test with HT29 colon. The TGI is greater than 100 µM with COLO 205 colon, 47.3 µM in the test with LOX IMVI melanoma, greater than 100 µM in the test with BT-549 breast and greater than 100 µM in the test with PC-3 prostate.
Regarding `CCN1CCC(O)(/C=C/c2ccc(C(C)C)cc2)C(C(=O)/C=C/c2ccc(C(C)C)cc2)C1` (configuration not stated), the TGI amounted to 6.16 µM in the test with TK-10 renal; 15.7 µM in the test with UACC-62 melanoma; 7.32 µM in the test with U251 CNS; 5.88 µM in the test on NCI-H23 lung; 4.58 µM with SF-539 CNS; 6.21 µM in the test on HT29 colon. Besides, the TGI in the test on COLO 205 colon stood at 5.11 µM; in the test with LOX IMVI melanoma, 3.38 µM; in the test on BT-549 breast, 16.2 µM; with PC-3 prostate, 11.4 µM.
Take `C[C@H]1COC2=C1C(=O)C(=O)c1c2ccc2c1CCCC2(C)C`: the TGI is 65.9 µM with TK-10 renal; 8.2 µM in the test on UACC-62 melanoma; 27.4 µM in the test on U251 CNS; 3.57 µM in the test on NCI-H23 lung; 18.2 µM in the test on SF-539 CNS; 7.39 µM with HT29 colon. Moreover, the TGI in the test on COLO 205 colon was 4.19 µM; with LOX IMVI melanoma, 14.4 µM; in the test on BT-549 breast, 5.71 µM; with PC-3 prostate it was greater than 64.5 µM.
For the molecule `Cc1cn(S(=O)(=O)c2ccccc2)c2c(OCc3ccccc3)cc(NS(C)(=O)=O)cc12`, the TGI was greater than 100 µM in the test on TK-10 renal; greater than 89.2 µM with UACC-62 melanoma; greater than 65.7 µM in the test on U251 CNS; greater than 100 µM in the test on NCI-H23 lung; greater than 100 µM with SF-539 CNS; 17.2 µM in the test with HT29 colon. Besides, the TGI in the test with COLO 205 colon is 77.2 µM; in the test with LOX IMVI melanoma it was greater than 100 µM; in the test on BT-549 breast, greater than 100 µM; in the test on PC-3 prostate, 29 µM.
Regarding `CCOC(=O)/C=C(\C(=O)OCC)n1ccc(=O)[nH]c1=O`, the TGI in the test with TK-10 renal stood at 26.2 µM; with UACC-62 melanoma, 31.3 µM; in the test with U251 CNS, 32.6 µM; in the test on NCI-H23 lung it was 32.4 µM; in the test with SF-539 CNS, 75.1 µM; with HT29 colon, 31 µM. Further, the TGI with COLO 205 colon came out at 8.24 µM; in the test with LOX IMVI melanoma it was 28.7 µM; with BT-549 breast, 30.7 µM; in the test with PC-3 prostate, 30.7 µM.
For the molecule `N#CC(C#N)=C1C(=O)NC(N)=C1C#N`, the TGI in the test with TK-10 renal, in the test on UACC-62 melanoma, in the test on U251 CNS, in the test on NCI-H23 lung, in the test with HT29 colon and with COLO 205 colon was greater than 100 µM throughout. In addition, the TGI with LOX IMVI melanoma, in the test on BT-549 breast and in the test with PC-3 prostate was greater than 100 µM in each case.
Take `O=c1[nH]c(=S)c2cc3c(=S)[nH]c(=O)n(CCO)c3nc2n1CCO`: the TGI with TK-10 renal, with U251 CNS, with NCI-H23 lung, in the test with SF-539 CNS, in the test with COLO 205 colon and with LOX IMVI melanoma was greater than 100 µM each time. Further, the TGI in the test with BT-549 breast and in the test with PC-3 prostate was greater than 100 µM each time.
For the molecule `S=c1[nH]c2ccc(I)cc2c(=S)n1Cc1ccccc1`, the TGI with TK-10 renal was 30.8 µM; with U251 CNS, 12.9 µM; with NCI-H23 lung, 9.61 µM; in the test on SF-539 CNS it was 37.2 µM; with HT29 colon, 38.9 µM; in the test with COLO 205 colon it was 25.2 µM. For the same molecule, the TGI in the test with LOX IMVI melanoma amounted to 16 µM; in the test with BT-549 breast it was 27 µM; in the test with PC-3 prostate, 15.5 µM.
On to `CC(=O)c1c2n(n(-c3ccccc3)c1=O)C(=O)c1nccnc1-2`, for which the TGI with UACC-62 melanoma, in the test on U251 CNS, in the test on NCI-H23 lung, in the test on SF-539 CNS, in the test on HT29 colon and with COLO 205 colon was greater than 100 µM in each case. Further, the TGI with LOX IMVI melanoma, with BT-549 breast and with PC-3 prostate was greater than 100 µM in each case.
Consider `[N-]=[N+]=C(C(=O)N1CCCC1=O)S(=O)(=O)c1ccccc1`, for which the TGI with TK-10 renal, with UACC-62 melanoma, in the test on U251 CNS, in the test with NCI-H23 lung, with SF-539 CNS and in the test with COLO 205 colon was greater than 100 µM in each case. Also, the TGI in the test with LOX IMVI melanoma, in the test on BT-549 breast and in the test with PC-3 prostate was greater than 100 µM throughout.
On to `C=C1CN(C2=NCCO2)C1`, for which the TGI with TK-10 renal, in the test with UACC-62 melanoma, in the test on NCI-H23 lung, in the test with SF-539 CNS, with HT29 colon and in the test on COLO 205 colon was greater than 100 µM each time. In addition, the TGI in the test on LOX IMVI melanoma, in the test with BT-549 breast and in the test with PC-3 prostate was greater than 100 µM in each case.
For `C[N+](C)(CCNC(=O)c1cccc2cc3ccccc3nc12)Cc1ccc([N+](=O)[O-])s1`, the TGI in the test with TK-10 renal, with UACC-62 melanoma, in the test with U251 CNS, in the test with NCI-H23 lung, in the test with HT29 colon and in the test with COLO 205 colon was greater than 25 µM each time. Besides, the TGI in the test on LOX IMVI melanoma, in the test on BT-549 breast and in the test on PC-3 prostate was greater than 25 µM each time.
